The text below walks through data of ChEMBL document CHEMBL1201862, “PubChem BioAssay data set” (2004).

“And” between values parts separate entries of the source, which are not always exact repeats. Equal values may be shown once. Where a name gives a salt, the structure may show the parent alone. The source made the active and inactive calls.

For one experiment, the target named is T1, Insulin-degrading enzyme (Homo sapiens, UniProt P14735).
T1 sequence (P14735 whole entry): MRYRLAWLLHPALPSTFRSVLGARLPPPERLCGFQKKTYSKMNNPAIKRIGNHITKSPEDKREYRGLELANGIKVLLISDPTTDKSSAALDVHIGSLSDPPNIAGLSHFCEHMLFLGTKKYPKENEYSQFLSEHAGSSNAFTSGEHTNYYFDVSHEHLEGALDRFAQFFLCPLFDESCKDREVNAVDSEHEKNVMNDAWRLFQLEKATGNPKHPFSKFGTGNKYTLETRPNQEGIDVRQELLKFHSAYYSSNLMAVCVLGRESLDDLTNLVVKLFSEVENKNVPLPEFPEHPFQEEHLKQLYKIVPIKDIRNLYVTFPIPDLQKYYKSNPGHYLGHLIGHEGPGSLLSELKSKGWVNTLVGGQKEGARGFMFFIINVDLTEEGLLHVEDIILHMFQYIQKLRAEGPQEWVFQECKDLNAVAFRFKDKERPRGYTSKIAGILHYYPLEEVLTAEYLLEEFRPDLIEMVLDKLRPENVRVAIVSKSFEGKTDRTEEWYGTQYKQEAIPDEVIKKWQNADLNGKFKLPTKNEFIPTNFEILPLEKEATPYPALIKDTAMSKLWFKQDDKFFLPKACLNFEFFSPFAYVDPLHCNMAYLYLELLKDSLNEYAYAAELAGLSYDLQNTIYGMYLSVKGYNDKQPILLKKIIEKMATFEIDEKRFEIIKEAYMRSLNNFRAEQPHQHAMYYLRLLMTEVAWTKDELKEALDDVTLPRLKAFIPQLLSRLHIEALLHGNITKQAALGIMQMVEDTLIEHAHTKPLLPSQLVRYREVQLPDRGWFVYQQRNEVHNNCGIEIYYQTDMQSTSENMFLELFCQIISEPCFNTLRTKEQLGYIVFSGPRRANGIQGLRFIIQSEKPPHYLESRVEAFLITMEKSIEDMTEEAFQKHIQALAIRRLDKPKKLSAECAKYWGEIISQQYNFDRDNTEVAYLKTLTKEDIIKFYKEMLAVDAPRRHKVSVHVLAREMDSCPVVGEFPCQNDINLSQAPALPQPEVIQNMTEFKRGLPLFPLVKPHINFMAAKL
The experiment in a line: recombinant IDE activation, cell-free – biochemical, fluorescence polarization, counter-screen for IDE activator project, dose response (AID 588681).

The test system of the next experiment is H4. Put plainly: Luminescence Cell-Based Dose Response HTS to Identify Activators of 5'UTR Stem-Loop Driven Prion Protein mRNA Translation in H4 Neuroglioblastoma Cells. [Related pubchem assays: 1829 (Project Summary), 1814 (Primary HTS)]. Particulars: Homo sapiens. The format is functional.
Experiment [1] concerns the target Intestinal-type alkaline phosphatase (Homo sapiens, UniProt P09923). The experiment in a line: inhibition of human intestinal alkaline phosphatase – biochemical, luminescent, uHTS hits, set 2, dose response (AID 488793). The format is functional.
For experiment [2], the target named is Ribosomal protein S6 kinase alpha-3 (Homo sapiens, UniProt P51812). The format is functional.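 Note: measured within a kinome-wide profiling panel.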
Experiment [3] has as its target 5'-AMP-activated protein kinase catalytic subunit alpha-1 (Homo sapiens, UniProt Q13131). The format is functional.
Experiment [4] deals with Death-associated protein kinase 3 (Homo sapiens, UniProt O43293). The format is functional.
The target in experiment [5] is Serine/threonine-protein kinase Chk2 (Homo sapiens, UniProt O96017). The format is functional.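 Note: CHEK2 entry within a kinome-wide screening panel.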
A further experiment deals with Activin receptor type-1 (Homo sapiens, UniProt Q04771). The experiment in a line: Navigating the Kinome. Panel member name: ACVR1. It is filed as functional.
For experiment [6], the target named is Mitogen-activated protein kinase 8 (Homo sapiens, UniProt P45983). It is filed as functional.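 Note: value comes from one member of a kinome-wide kinase profiling panel.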
Experiment [7] addresses Serine/threonine-protein kinase pim-1 (Homo sapiens, UniProt P11309). It is filed as functional.
The next experiment deals with Aurora kinase A (Homo sapiens, UniProt O14965). It is filed as functional.
For experiment [8], the target named is Calcium/calmodulin-dependent protein kinase type II subunit delta (Homo sapiens, UniProt Q13557). It is filed as functional.
Experiment [9] has as its target Fibroblast growth factor receptor 1 (Homo sapiens, UniProt P11362). The format is functional.
For a further experiment, the target named is LIM domain kinase 1 (Homo sapiens, UniProt P53667). Put plainly: Navigating the Kinome. Panel member name: LIMK1. The format is functional.
Experiment [10] has as its target MAP/microtubule affinity-regulating kinase 3 (Homo sapiens, UniProt P27448). The format is functional.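 Note: MARK3 affinity measured as one member of a kinome panel.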
The target in experiment [11] is High affinity nerve growth factor receptor (Homo sapiens, UniProt P04629). The format is functional.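 Note: NTRK1 tested as one member of a kinome-wide profiling panel.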
Experiment [12] addresses Tyrosine-protein kinase ABL1 (Homo sapiens, UniProt P00519). It is filed as functional.
Experiment [13] has as its target Cyclin-dependent kinase 5 (Homo sapiens, UniProt Q00535). The format is functional.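 Note: CDK5 measured as one member of a kinase profiling panel.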
In the next experiment the target is Ephrin type-A receptor 2 (Homo sapiens, UniProt P29317). It is filed as functional.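 Note: EPHA2 tested as one member of a kinome-wide kinase panel.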
For experiment [14], the target named is cAMP-dependent protein kinase catalytic subunit PRKX (Homo sapiens, UniProt P51817). It is filed as functional.
Experiment [15] addresses STE20-like serine/threonine-protein kinase (Homo sapiens, UniProt Q9H2G2). It is filed as functional.
For experiment [16], the target named is Macrophage-stimulating protein receptor (Homo sapiens, UniProt Q04912). Put plainly: Navigating the Kinome. Panel member name: MST1R. The format is functional.
Experiment [17] deals with T2, Zinc finger protein mex-5 (Caenorhabditis elegans, UniProt Q9XUB2).
T2 sequence (Q9XUB2 whole entry): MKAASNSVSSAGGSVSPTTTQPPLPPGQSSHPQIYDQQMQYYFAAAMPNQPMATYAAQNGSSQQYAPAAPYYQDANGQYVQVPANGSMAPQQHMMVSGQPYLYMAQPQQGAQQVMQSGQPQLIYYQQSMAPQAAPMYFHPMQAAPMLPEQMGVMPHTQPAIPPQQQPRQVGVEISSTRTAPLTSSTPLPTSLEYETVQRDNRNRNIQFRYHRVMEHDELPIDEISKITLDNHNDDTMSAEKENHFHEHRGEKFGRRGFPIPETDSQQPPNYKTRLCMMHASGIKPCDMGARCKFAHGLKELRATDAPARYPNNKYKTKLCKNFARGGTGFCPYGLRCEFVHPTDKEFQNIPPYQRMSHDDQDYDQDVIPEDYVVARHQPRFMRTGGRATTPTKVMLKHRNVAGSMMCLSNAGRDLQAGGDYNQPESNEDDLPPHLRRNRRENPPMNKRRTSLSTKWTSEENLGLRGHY
The experiment in a line: potency of MEX-5 RNA-binding blockers – biochemical, C. elegans, fluorescence polarization, dose response (AID 1960). (Polarisation of emitted light reports the rotation of a fluorescent probe.)

For experiment [18], the target named is Sphingosine 1-phosphate receptor 2 (Homo sapiens, UniProt O95136). Put plainly: Dose Response Cell Based Assay for Agonists of the S1P2 Receptor. [Related pubchem assays: 729, 736, 843 ]. It is filed as functional.
Sphingosine 1-phosphate receptor 2, sequence (O95136 whole entry): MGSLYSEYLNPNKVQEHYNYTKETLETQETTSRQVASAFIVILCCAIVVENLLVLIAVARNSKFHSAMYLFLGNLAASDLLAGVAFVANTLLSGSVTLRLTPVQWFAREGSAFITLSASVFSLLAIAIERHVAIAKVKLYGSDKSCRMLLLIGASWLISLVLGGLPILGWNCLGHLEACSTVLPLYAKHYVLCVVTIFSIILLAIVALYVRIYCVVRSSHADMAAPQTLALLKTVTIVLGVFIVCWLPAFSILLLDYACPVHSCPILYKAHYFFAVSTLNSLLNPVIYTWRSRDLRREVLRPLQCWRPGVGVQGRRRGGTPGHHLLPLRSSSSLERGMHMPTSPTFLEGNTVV

Ephrin type-A receptor 2, sequence (P29317 whole entry): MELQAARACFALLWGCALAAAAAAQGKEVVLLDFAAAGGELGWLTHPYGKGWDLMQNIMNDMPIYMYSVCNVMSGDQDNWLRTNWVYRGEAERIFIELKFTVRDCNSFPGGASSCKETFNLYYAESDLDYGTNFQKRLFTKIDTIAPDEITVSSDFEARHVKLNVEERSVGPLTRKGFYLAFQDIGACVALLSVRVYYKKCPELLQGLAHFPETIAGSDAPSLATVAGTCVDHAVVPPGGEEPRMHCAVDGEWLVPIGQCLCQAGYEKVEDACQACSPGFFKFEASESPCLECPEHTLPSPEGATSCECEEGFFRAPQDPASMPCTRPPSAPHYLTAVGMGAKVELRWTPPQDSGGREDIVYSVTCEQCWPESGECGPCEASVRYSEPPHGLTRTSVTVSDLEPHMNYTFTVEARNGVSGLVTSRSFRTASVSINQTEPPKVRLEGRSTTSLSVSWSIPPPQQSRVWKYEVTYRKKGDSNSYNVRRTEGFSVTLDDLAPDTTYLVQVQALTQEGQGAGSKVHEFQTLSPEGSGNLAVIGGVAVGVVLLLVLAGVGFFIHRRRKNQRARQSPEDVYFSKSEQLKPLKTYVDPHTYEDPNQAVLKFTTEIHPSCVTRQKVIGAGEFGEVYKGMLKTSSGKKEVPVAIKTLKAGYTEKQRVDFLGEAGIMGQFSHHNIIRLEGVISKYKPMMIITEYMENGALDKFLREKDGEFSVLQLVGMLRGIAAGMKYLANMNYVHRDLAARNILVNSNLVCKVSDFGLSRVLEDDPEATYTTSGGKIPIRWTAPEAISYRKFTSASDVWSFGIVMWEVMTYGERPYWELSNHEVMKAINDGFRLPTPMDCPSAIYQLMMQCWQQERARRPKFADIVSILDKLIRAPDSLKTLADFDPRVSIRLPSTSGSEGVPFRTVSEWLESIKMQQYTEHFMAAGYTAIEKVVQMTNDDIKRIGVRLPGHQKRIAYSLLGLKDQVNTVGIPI
Fibroblast growth factor receptor 1, sequence (P11362 whole entry, the tested form may be a part): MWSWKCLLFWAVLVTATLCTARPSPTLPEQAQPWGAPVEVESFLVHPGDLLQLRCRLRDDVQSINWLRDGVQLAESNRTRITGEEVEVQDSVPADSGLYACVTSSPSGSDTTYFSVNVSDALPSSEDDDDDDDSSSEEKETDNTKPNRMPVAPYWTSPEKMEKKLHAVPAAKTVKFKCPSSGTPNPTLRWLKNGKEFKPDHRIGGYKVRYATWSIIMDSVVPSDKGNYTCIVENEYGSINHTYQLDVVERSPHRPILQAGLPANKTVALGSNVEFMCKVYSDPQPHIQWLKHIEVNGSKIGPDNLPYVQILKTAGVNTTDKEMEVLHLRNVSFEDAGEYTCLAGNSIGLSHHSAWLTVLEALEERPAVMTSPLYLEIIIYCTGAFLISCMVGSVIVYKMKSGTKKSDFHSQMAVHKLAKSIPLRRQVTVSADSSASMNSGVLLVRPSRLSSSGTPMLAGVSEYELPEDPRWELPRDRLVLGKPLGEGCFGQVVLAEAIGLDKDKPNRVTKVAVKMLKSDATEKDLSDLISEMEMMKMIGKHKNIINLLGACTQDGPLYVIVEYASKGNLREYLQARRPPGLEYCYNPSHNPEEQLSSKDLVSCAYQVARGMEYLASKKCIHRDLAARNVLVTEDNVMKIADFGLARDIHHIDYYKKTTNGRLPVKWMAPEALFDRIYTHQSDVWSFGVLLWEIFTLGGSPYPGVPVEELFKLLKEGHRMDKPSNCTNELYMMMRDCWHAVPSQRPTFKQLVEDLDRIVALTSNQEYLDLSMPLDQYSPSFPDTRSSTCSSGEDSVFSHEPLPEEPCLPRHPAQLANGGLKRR
Ribosomal protein S6 kinase alpha-3, sequence (P51812 whole entry): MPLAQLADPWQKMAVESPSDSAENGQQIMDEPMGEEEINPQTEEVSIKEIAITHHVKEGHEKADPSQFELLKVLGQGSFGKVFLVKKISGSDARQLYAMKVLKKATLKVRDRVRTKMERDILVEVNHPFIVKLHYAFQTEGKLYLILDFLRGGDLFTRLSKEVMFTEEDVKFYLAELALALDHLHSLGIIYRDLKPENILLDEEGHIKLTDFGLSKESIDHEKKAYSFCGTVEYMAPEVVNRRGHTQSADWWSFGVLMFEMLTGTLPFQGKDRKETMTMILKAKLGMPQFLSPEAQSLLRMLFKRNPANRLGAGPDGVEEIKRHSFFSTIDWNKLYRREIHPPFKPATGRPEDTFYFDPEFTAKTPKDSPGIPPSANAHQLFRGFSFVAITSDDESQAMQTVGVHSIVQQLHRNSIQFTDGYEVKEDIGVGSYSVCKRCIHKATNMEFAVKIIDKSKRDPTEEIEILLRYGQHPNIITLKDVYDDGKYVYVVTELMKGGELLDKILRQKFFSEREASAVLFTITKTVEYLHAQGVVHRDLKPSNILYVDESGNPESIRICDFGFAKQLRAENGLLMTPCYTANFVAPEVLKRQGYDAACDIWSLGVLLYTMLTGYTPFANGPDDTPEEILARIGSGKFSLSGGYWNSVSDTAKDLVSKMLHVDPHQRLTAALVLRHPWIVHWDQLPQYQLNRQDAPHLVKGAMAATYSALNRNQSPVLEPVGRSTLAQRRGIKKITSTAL
Cyclin-dependent kinase 5, sequence (Q00535 whole entry): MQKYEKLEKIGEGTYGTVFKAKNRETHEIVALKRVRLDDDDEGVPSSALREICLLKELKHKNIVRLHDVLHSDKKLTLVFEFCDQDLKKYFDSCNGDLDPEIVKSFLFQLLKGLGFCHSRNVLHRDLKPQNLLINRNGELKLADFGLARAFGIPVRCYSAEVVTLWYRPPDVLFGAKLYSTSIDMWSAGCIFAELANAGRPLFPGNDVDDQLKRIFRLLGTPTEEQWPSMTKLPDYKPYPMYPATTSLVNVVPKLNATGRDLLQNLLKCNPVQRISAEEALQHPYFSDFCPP
STE20-like serine/threonine-protein kinase, sequence (Q9H2G2 whole entry): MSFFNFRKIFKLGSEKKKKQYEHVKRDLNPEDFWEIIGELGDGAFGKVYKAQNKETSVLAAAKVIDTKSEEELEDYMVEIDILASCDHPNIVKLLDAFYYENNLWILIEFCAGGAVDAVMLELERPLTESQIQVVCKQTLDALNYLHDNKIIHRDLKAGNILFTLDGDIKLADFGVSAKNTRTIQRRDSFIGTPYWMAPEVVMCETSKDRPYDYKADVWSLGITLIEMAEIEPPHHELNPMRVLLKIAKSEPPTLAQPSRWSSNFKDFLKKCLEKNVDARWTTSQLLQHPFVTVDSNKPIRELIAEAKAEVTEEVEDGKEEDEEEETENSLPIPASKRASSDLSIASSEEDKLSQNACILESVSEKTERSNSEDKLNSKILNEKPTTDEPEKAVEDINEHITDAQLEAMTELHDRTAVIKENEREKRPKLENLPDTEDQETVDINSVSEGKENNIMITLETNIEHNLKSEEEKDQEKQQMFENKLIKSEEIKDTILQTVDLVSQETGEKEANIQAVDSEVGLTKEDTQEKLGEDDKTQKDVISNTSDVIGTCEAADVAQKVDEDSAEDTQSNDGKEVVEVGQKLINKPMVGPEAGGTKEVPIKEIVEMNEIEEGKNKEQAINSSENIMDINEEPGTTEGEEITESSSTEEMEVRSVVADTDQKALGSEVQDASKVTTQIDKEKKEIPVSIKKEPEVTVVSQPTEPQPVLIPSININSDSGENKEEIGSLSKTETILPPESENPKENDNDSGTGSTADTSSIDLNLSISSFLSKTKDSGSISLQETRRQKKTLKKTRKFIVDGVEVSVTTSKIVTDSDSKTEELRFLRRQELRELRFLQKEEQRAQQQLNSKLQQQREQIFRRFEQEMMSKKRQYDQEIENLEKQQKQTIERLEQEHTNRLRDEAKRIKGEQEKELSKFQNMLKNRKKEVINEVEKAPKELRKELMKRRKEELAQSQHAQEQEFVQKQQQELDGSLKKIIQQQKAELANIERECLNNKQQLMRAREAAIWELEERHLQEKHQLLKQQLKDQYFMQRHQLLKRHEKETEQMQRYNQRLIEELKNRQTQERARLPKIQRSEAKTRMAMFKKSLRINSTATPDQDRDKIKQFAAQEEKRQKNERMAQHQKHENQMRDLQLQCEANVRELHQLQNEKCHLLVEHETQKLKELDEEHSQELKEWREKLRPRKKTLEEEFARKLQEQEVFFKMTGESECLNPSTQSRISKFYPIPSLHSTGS
5'-AMP-activated protein kinase catalytic subunit alpha-1, sequence (Q13131 whole entry): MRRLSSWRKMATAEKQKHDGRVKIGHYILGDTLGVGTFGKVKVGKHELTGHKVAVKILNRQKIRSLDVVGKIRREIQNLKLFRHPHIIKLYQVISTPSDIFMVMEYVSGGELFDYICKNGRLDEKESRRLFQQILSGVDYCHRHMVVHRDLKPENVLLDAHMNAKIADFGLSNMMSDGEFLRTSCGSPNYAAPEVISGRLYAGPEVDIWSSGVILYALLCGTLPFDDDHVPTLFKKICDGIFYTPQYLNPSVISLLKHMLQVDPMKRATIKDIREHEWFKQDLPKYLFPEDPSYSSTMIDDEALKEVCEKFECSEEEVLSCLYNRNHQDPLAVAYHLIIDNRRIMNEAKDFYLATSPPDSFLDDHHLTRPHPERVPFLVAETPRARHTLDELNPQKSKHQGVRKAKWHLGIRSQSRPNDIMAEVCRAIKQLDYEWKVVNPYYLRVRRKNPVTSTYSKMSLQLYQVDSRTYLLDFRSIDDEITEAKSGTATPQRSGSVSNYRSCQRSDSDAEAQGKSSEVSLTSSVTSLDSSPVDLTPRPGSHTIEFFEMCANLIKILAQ

The EC50 is the concentration that produces a half-maximal response. As to `CCCCCCCCCCOC(=O)C[n+]1c(COc2ccc(C)cc2)n(C)c2ccccc21`, the EC50 on Insulin-degrading enzyme is 16.9 µM (inactive).

Usually IC50 stands for the concentration that inhibits the measured activity by half. Turning to `CCN1/C(=C\c2ccc3ccccc3[n+]2CC)Sc2cc(C)ccc21`, in the experiment with H4, the 50% effective concentration (EC50) is given as > 120 µM (not active). The half-inhibitory concentration (IC50) in experiment [1] was 23.5 µM (active).

A word on the Ki: it is a measure of affinity in units of concentration, obtained from inhibition or displacement. In the case of `CN1CCN(c2nc(C3=C(c4c[nH]c5ccccc45)C(=O)NC3=O)c3ccccc3n2)CC1` [SOTRASTAURIN], the Ki was 0.126 µM (active) in experiment [2]; 0.631 µM (active) in experiment [3]; > 3.16 µM (inactive) in [4]; > 1.58 µM (inactive) in experiment [5]; > 3.98 µM (inactive) at Activin receptor type-1; > 3.98 µM (inactive) in experiment [6]. Also, the Ki in [7] was 0.158 µM (active); at Aurora kinase A, > 1.58 µM (inactive); in [8], 0.0316 µM (active); in experiment [9] it was > 2.51 µM (inactive); at LIM domain kinase 1, > 3.16 µM (inactive); in experiment [10], 1 µM (active). Also, the Ki was > 2.51 µM (inactive) in experiment [11]; > 1.58 µM (inactive) in experiment [12]; 3.16 µM (active) in experiment [13]; > 3.16 µM (inactive) at Ephrin type-A receptor 2; > 2.51 µM (inactive) in experiment [14]; 0.126 µM (active) in [15]. The Ki in experiment [16] was 0.158 µM (active).

For `CC[C@@H](CO)NC(=O)[C@@H]1C=C2c3cccc4c3c(cn4C)C[C@H]2N(C)C1` [METHYSERGIDE MALEATE], in experiment [17], the EC50 is 12.3 µM (active) and 20 µM (inconclusive).

Turning to `CCC(C)n1c(NC(=O)c2ccccc2)c(C#N)c2nc3ccccc3nc21` (centres undefined), the EC50 in [18] is 4.6 µM (active).
